# Experimental data from patent US10780074B2, “Compounds and uses thereof” (Sunovion Pharmaceuticals Inc., priority 2017, dated 2020).
# Where a name gives a salt, the structure may show the parent alone.
# Tested on: behaviors of compound-treated mice
# Experiment: Neuropharmacological Assay (SmartCube)
# Type: in vivo
# Conditions: Mus musculus, ip, 0.25 h, dose having 50% or more total activity in SmartCube, i.p., read-out: MED (minimal effective dose)
# Source text: Neuropharmacological Assay (SmartCube™)
# Neurosci. 2011 Sep. 9; 5:103 (doi: 10.3389/fnins.2011.00103) (“Roberds”). As reported in Roberds, because psychiatric diseases generally result from disorders of cell-cell communication or circuitry, intact systems are useful in detecting improvement in disease-relevant endpoints. These endpoints are typically behavioral in nature, often requiring human observation and interpretation. To facilitate testing of multiple compounds for behavioral effects relevant to psychiatric disease, PsychoGenics, Inc. (Tarrytown, N.Y., “PGI”) developed SmartCube™, an automated system in which behaviors of compound-treated mice are captured by digital video and analyzed with computer algorithms. (D. Brunner et al., Drug Discov. Today 2002, 7:S107-S112). PGI Analytical Systems uses data from SmartCube™ to compare the behavioral signature of a test compound to a database of behavioral signatures obtained using a large set of diverse reference compounds. (The composition of the database as well as validation of the method is further described in Roberds). In this way, the neuropharmacological effects of a test compound can be predicted by similarity to major classes of compounds, such as antipsychotics, anxiolytics and antidepressants.
# The SmartCube™ system produces an activity signature indicating the probability that the activity of the test compound at the administered dose matches a given class of neuropharmacological agents. (See, e.g., Roberds, FIGS. 2 and 3). The test compound is simultaneously compared against multiple classes of agents; thus, a separate probability is generated for each behavioral effect measured (e.g., anxiolytic activity, analgesic activity, etc.). In the table below, these probabilities are reported for each behavioral effect measured as follows:
# Provided compounds were dissolved in a mixture of Pharmasolve™ (N-methyl-2-pyrrolidone), polyethylene glycol and propylene glycol, and were injected i.p. 15 min. before the behavioral test. For each compound, injections were administered at 3 different doses. For each behavioral effect measured, results for the most efficacious dose(s) are presented. In the table below, DP: anti-depressant; AX: anxiolytic; SD: sedative hypnotic; PS: anti-psychotic; MS: mood stabilizer; AD: ADHD; CE: cognitive enhancer; AG: analgesic; UN: uncharacterized CNS activity.
# The potency of many of the compounds in the table was also determined in the SmartCube™ system. Test compounds were routinely examined at dose levels of 0.3, 1, 3 10 and 30 mg per kg (mpk), although the dose range was increased or decreased if necessary to obtain a full dose response curve. A compound's minimal effective dose (MED) is a measure of the compounds potency. The MED was defined as the dose (in mpk) having 50% or more total activity in SmartCube.
row,SMILES,minimal effective dose [mg/kg]
1,"CNC[C@@H]1OCCc2cccc(-c3cccnc3)c21 (single isomer, unassigned) [Compound 1, bis-hydrochloride]",10 to 30
2,"CNC[C@@H]1OCCc2ccc(-c3cccnc3)cc21 (single isomer, unassigned) [Compound 3, dihydrochloride]",3 to 10
3,"CNC[C@@H]1OCCc2c(-c3cccnc3)cccc21 (single isomer, unassigned) [Compound 7, bis-hydrochloride]",10 to 30
4,"CNC[C@H]1OCCc2c(-c3cccnc3)cccc21 (single isomer, unassigned) [Compound 8, bis-hydrochloride]",≤ 3
5,"NC[C@@H]1OCCc2cccc(-c3cccnc3)c21 (single isomer, unassigned) [Compound 9, hydrochloride]",10 to 30
6,"NC[C@H]1OCCc2cccc(-c3cccnc3)c21 (single isomer, unassigned) [Compound 10, hydrochloride]",10 to 30
7,"NC[C@@H]1OCCc2ccc(-c3cccnc3)cc21 (single isomer, unassigned) [Compound 11, hydrochloride]",10 to 30
8,"NC[C@H]1OCCc2ccc(-c3cccnc3)cc21 (single isomer, unassigned) [Compound 12, hydrochloride]",10 to 30
9,"CNC[C@H]1OCCc2ccc(-c3cncnc3)cc21 (single isomer, unassigned) [Compound 25, hydrochloride]",10 to 30
10,"CNC[C@@H]1OCCc2ccc(-c3cncnc3)cc21 (single isomer, unassigned) [Compound 26, hydrochloride]",> 30
11,"NC[C@@H]1OCCc2c(-c3cncnc3)cccc21 (single isomer, unassigned) [Compound 27, hydrochloride salt]",> 30

# Same assay, conditions: i.p. 15 min before behavioral test, most efficacious dose(s) of 3 doses
SMILES,AD: ADHD (probability that activity matches class),AG: analgesic (probability that activity matches class),AX: anxiolytic (probability that activity matches class),CE: cognitive enhancer (probability that activity matches class),DP: anti-depressant (probability that activity matches class),MS: mood stabilizer (probability that activity matches class),PS: anti-psychotic (probability that activity matches class),SD: sedative hypnotic (probability that activity matches class),UN: uncharacterized CNS activity (probability that activity matches class)
"CNC[C@@H]1OCCc2cccc(-c3cccnc3)c21 (single isomer, unassigned) [Compound 1, bis-hydrochloride]",+ (LOQ ≤ + <5%),+ (LOQ ≤ + <5%),++ (5% ≤ ++ <25%),++ (5% ≤ ++ <25%),++ (5% ≤ ++ <25%),+ (LOQ ≤ + <5%),++ (5% ≤ ++ <25%),+ (LOQ ≤ + <5%),++ (5% ≤ ++ <25%)
"CNC[C@@H]1OCCc2ccc(-c3cccnc3)cc21 (single isomer, unassigned) [Compound 3, dihydrochloride]",+ (LOQ ≤ + <5%),++ (5% ≤ ++ <25%),++ (5% ≤ ++ <25%),++ (5% ≤ ++ <25%),++ (5% ≤ ++ <25%),++ (5% ≤ ++ <25%),++ (5% ≤ ++ <25%),+ (LOQ ≤ + <5%),++ (5% ≤ ++ <25%)
"CNC[C@@H]1OCCc2c(-c3cccnc3)cccc21 (single isomer, unassigned) [Compound 7, bis-hydrochloride]",++ (5% ≤ ++ <25%),+ (LOQ ≤ + <5%),++ (5% ≤ ++ <25%),+ (LOQ ≤ + <5%),+++ (25% ≤ +++ <50%),+ (LOQ ≤ + <5%),+ (LOQ ≤ + <5%),+ (LOQ ≤ + <5%),+ (LOQ ≤ + <5%)
"CNC[C@H]1OCCc2c(-c3cccnc3)cccc21 (single isomer, unassigned) [Compound 8, bis-hydrochloride]",++ (5% ≤ ++ <25%),+ (LOQ ≤ + <5%),++ (5% ≤ ++ <25%),+ (LOQ ≤ + <5%),++++ (50% ≤ ++++),+ (LOQ ≤ + <5%),+ (LOQ ≤ + <5%),+ (LOQ ≤ + <5%),+ (LOQ ≤ + <5%)
"NC[C@@H]1OCCc2cccc(-c3cccnc3)c21 (single isomer, unassigned) [Compound 9, hydrochloride]",+ (LOQ ≤ + <5%),++ (5% ≤ ++ <25%),++ (5% ≤ ++ <25%),+ (LOQ ≤ + <5%),++ (5% ≤ ++ <25%),+ (LOQ ≤ + <5%),++ (5% ≤ ++ <25%),+ (LOQ ≤ + <5%),+ (LOQ ≤ + <5%)
"NC[C@H]1OCCc2cccc(-c3cccnc3)c21 (single isomer, unassigned) [Compound 10, hydrochloride]",+ (LOQ ≤ + <5%),+++ (25% ≤ +++ <50%),+ (LOQ ≤ + <5%),+ (LOQ ≤ + <5%),++ (5% ≤ ++ <25%),+ (LOQ ≤ + <5%),+ (LOQ ≤ + <5%),+ (LOQ ≤ + <5%),+ (LOQ ≤ + <5%)
"NC[C@@H]1OCCc2ccc(-c3cccnc3)cc21 (single isomer, unassigned) [Compound 11, hydrochloride]",+ (LOQ ≤ + <5%),++ (5% ≤ ++ <25%),+ (LOQ ≤ + <5%),+ (LOQ ≤ + <5%),++++ (50% ≤ ++++),+ (LOQ ≤ + <5%),+ (LOQ ≤ + <5%),+ (LOQ ≤ + <5%),+ (LOQ ≤ + <5%)
"NC[C@H]1OCCc2ccc(-c3cccnc3)cc21 (single isomer, unassigned) [Compound 12, hydrochloride]",+ (LOQ ≤ + <5%),+ (LOQ ≤ + <5%),+ (LOQ ≤ + <5%),+ (LOQ ≤ + <5%),++++ (50% ≤ ++++),+ (LOQ ≤ + <5%),++ (5% ≤ ++ <25%),++ (5% ≤ ++ <25%),+ (LOQ ≤ + <5%)
"CNC[C@H]1OCCc2ccc(-c3cncnc3)cc21 (single isomer, unassigned) [Compound 25, hydrochloride]",+ (LOQ ≤ + <5%),++ (5% ≤ ++ <25%),++ (5% ≤ ++ <25%),+++ (25% ≤ +++ <50%),++ (5% ≤ ++ <25%),++ (5% ≤ ++ <25%),++ (5% ≤ ++ <25%),++ (5% ≤ ++ <25%),+ (LOQ ≤ + <5%)
"CNC[C@@H]1OCCc2ccc(-c3cncnc3)cc21 (single isomer, unassigned) [Compound 26, hydrochloride]",+ (LOQ ≤ + <5%),+ (LOQ ≤ + <5%),+ (LOQ ≤ + <5%),+ (LOQ ≤ + <5%),+ (LOQ ≤ + <5%),+ (LOQ ≤ + <5%),+ (LOQ ≤ + <5%),+ (LOQ ≤ + <5%),+ (LOQ ≤ + <5%)
"NC[C@@H]1OCCc2c(-c3cncnc3)cccc21 (single isomer, unassigned) [Compound 27, hydrochloride salt]",+ (LOQ ≤ + <5%),+ (LOQ ≤ + <5%),++ (5% ≤ ++ <25%),+ (LOQ ≤ + <5%),++ (5% ≤ ++ <25%),+ (LOQ ≤ + <5%),++ (5% ≤ ++ <25%),+ (LOQ ≤ + <5%),+ (LOQ ≤ + <5%)
